The values that follow come from ChEMBL document CHEMBL4311992, “Discovery of 3-(((9H-purin-6-yl)amino)methyl)-4,6-dimethylpyridin-2(1H)-one derivatives as novel tubulin polymerization inhibitors for treatment of cancer” (Eur J Med Chem, 2019).

The structures appear in SMILES notation.

Data set [1] deals with Dual specificity mitogen-activated protein kinase kinase 6 (Homo sapiens) (UniProt P52564). The data set can be described thus: Inhibition of recombinant human MKK6 (4 to end residues) assessed as residual activity at 10 uM using unactive SAPK2a as substrate measured after 40 mins in presence of [gamma33P]ATP by scintillation counting method.
Data set [2] addresses Tribbles homolog 2 (Homo sapiens) (UniProt Q92519). The data set can be described thus: Inhibition of recombinant full-length human TRB2 assessed as residual activity at 10 uM using RRRFRPASPLRGPPK as substrate measured after 120 mins in presence of [gamma33P]ATP by scintillation counting method.
Data set [3] addresses Mitogen-activated protein kinase kinase kinase 5 (Homo sapiens) (UniProt Q99683). The data set can be described thus: Inhibition of recombinant human ASK1 (649 to 946 residues) assessed as residual activity at 10 uM using myelin basic protein as substrate measured after 40 mins in presence of [gamma33P]ATP by scintillation counting method.
In data set [4] the target is Glycogen synthase kinase-3 alpha (Homo sapiens) (UniProt P49840). The data set can be described thus: Inhibition of recombinant human GSK3alpha (2 to end residues) assessed as residual activity at 10 uM using phospho GS2 peptide as substrate measured after 40 mins in presence of [gamma33P]ATP by scintillation counting method.
For data set [5], the target named is Serine/threonine-protein kinase D2 (Homo sapiens) (UniProt Q9BZL6). The data set can be described thus: Inhibition of recombinant full-length human PKD2 assessed as residual activity at 10 uM using KKLNRTLSVA as substrate measured after 40 mins in presence of [gamma33P]ATP by scintillation counting method.
Data set [6] deals with Calcium/calmodulin-dependent protein kinase type IV (Homo sapiens) (UniProt Q16566). The data set can be described thus: Inhibition of recombinant full-length human CaMK4 assessed as residual activity at 10 uM using calmodulin as substrate measured after 40 mins in presence of [gamma33P]ATP by scintillation counting method.
The target of data set [7] is Serine/threonine-protein kinase PAK 6 (Homo sapiens) (UniProt Q9NQU5). The data set can be described thus: Inhibition of recombinant human PAK6 (382 to end residues) assessed as residual activity at 10 uM using RRRLSFAEPG as substrate measured after 40 mins in presence of [gamma33P]ATP by scintillation counting method.
Data set [8] has as its target Insulin receptor (Homo sapiens) (UniProt P06213). The data set can be described thus: Inhibition of recombinant human activated IR (1005 to 1310 residues) assessed as residual activity at 10 uM using KKKSPGEYVNIEFG as substrate measured after 40 mins in presence of [gamma33P]ATP by scintillation counting method.
Data set [9] relates to Proto-oncogene tyrosine-protein kinase Src (Homo sapiens), P12931 [T341M]. The data set can be described thus: Inhibition of recombinant full-length human Src T341M mutant assessed as residual activity at 10 uM using GGEEEEYFELVKKKK as substrate measured after 40 mins in presence of [gamma33P]ATP by scintillation counting method.
The target of data set [10] is Death-associated protein kinase 1 (Homo sapiens) (UniProt P53355). The data set can be described thus: Inhibition of recombinant human DAPK1 (1 to 296 residues) assessed as residual activity at 10 uM using KKLNRTLSFAEPG as substrate measured after 40 mins in presence of [gamma33P]ATP by scintillation counting method.
Data set [11] has as its system SW-620. The data set can be described thus: Induction of apoptosis in human SW620 cells assessed as early apoptotic cells at 100 nM measured after 48 hrs by Annexin V-FITC/propidium iodide staining-based flow cytometry (reference value: 0.773%). The format is functional.
Data set [12] concerns SW-620. The data set can be described thus: Induction of apoptosis in human SW620 cells assessed as late apoptotic cells at 100 nM measured after 48 hrs by Annexin V-FITC/propidium iodide staining-based flow cytometry (reference value: 1.8%). The class given is functional.
The target of data set [13] is Proto-oncogene tyrosine-protein kinase Src (Homo sapiens) (UniProt P12931). The data set can be described thus: Inhibition of human Src (1 to 530 residues) using GGEEEEYFELVKKKK as substrate measured after 40 mins in presence of [gamma33P]ATP by scintillation counting method. Set-up: scale not given: the % may be the effect or the level left.
Data set [14] concerns the target CDK7/Cyclin H/MNAT1 (Homo sapiens) (UniProt P51946+P50613+P51948). The data set can be described thus: Inhibition of recombinant full length human CDK7/cyclin H/MAT1 assessed as residual activity at 10 uM using peptide substrate measured after 40 mins in presence of [gamma33P]ATP by scintillation counting method. The format is protein-complex assay.
For data set [15], the species on record is Homo sapiens. The data set can be described thus: Inhibition of recombinant full-length human AURKA I31F mutant assessed as residual activity at 10 uM using LRRASLG as substrate measured after 40 mins in presence of [gamma33P]ATP by scintillation counting method.
In data set [16] the target is Myosin light chain kinase, smooth muscle (Homo sapiens) (UniProt Q15746). The data set can be described thus: Inhibition of recombinant human MLCK (1425 to 1771 residues) assessed as residual activity at 10 uM using calmodulin as substrate measured after 40 mins in presence of [gamma33P]ATP by scintillation counting method.
In data set [17] the target is NUAK family SNF1-like kinase 2 (Homo sapiens) (UniProt Q9H093). The data set can be described thus: Inhibition of recombinant full-length human NUAK2 assessed as residual activity at 10 uM using KKKVSRSGLYRSPSMPENLNRPR as substrate measured after 40 mins in presence of [gamma33P]ATP by scintillation counting method.
Data set [18] has as its target Homeodomain-interacting protein kinase 4 (Homo sapiens) (UniProt Q8NE63). The data set can be described thus: Inhibition of recombinant full-length human HIPK4 assessed as residual activity at 10 uM using RRRFRPASPLRGPPK as substrate measured after 40 mins in presence of [gamma33P]ATP by scintillation counting method.
The target of data set [19] is Transient receptor potential cation channel subfamily M member 7 (Homo sapiens) (UniProt Q96QT4). The data set can be described thus: Inhibition of recombinant human CHAK1 (1180 to end residues) assessed as residual activity at 10 uM using myelin basic protein as substrate measured after 40 mins in presence of [gamma33P]ATP by scintillation counting method.
In data set [20] the target is Serine/threonine-protein kinase tousled-like 1 (Homo sapiens) (UniProt Q9UKI8). The data set can be described thus: Inhibition of recombinant full-length human TLK1 assessed as residual activity at 10 uM using casein as substrate measured after 40 mins in presence of [gamma33P]ATP by scintillation counting method.
The target of data set [21] is BMP-2-inducible protein kinase (Homo sapiens) (UniProt Q9NSY1). The data set can be described thus: Inhibition of recombinant human BIKepsilon assessed as residual activity at 10 uM using peptide substrate measured after 120 mins in presence of [gamma33P]ATP by scintillation counting method.
Data set [22] can be described thus: Hepatotoxicity in nude BALB/c mouse at 80 mg/kg, po administered once daily for 4 weeks measured post-last dose by hematoxylin and eosin staining-based assay. The class given is toxicity, organism-based. The note with it: in vivo, 672 h.
For data set [23], the target named is Dual specificity tyrosine-phosphorylation-regulated kinase 1A (Homo sapiens) (UniProt Q13627). The data set can be described thus: Inhibition of recombinant full-length human DYRK1A assessed as residual activity at 10 uM using RRRFRPASPLRGPPK as substrate measured after 40 mins in presence of [gamma33P]ATP by scintillation counting method.

Chain of BMP-2-inducible protein kinase (Homo sapiens) (Q9NSY1 whole entry, looked up): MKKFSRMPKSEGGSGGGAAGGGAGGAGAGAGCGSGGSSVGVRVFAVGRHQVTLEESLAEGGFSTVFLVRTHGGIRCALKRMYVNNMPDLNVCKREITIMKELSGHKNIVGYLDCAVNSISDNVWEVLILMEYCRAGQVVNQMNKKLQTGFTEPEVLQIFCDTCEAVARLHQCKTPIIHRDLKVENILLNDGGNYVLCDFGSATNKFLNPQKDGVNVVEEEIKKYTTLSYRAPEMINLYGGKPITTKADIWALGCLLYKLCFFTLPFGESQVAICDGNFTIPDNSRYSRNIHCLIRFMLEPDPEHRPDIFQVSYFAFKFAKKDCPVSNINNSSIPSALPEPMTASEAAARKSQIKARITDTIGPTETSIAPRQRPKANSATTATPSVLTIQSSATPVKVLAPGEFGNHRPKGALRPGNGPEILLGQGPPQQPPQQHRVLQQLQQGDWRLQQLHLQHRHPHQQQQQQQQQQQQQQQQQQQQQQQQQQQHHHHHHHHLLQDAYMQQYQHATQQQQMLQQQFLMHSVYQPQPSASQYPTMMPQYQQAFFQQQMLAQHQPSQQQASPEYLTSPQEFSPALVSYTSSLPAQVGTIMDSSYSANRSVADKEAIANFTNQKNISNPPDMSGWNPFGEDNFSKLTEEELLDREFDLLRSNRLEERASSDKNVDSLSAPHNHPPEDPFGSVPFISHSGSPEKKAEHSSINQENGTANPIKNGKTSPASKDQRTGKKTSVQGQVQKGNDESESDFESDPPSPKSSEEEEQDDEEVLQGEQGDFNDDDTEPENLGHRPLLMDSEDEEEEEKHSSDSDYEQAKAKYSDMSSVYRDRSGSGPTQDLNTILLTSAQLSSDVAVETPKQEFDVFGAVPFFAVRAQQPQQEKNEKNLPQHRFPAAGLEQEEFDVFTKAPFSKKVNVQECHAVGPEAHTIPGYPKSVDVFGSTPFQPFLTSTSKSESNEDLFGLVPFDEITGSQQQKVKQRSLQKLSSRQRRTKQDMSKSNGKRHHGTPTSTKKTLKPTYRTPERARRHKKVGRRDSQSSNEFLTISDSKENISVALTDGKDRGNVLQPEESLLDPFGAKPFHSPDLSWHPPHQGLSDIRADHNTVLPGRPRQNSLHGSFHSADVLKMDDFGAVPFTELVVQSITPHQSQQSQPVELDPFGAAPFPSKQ
Chain of Transient receptor potential cation channel subfamily M member 7 (Homo sapiens) (Q96QT4 whole entry): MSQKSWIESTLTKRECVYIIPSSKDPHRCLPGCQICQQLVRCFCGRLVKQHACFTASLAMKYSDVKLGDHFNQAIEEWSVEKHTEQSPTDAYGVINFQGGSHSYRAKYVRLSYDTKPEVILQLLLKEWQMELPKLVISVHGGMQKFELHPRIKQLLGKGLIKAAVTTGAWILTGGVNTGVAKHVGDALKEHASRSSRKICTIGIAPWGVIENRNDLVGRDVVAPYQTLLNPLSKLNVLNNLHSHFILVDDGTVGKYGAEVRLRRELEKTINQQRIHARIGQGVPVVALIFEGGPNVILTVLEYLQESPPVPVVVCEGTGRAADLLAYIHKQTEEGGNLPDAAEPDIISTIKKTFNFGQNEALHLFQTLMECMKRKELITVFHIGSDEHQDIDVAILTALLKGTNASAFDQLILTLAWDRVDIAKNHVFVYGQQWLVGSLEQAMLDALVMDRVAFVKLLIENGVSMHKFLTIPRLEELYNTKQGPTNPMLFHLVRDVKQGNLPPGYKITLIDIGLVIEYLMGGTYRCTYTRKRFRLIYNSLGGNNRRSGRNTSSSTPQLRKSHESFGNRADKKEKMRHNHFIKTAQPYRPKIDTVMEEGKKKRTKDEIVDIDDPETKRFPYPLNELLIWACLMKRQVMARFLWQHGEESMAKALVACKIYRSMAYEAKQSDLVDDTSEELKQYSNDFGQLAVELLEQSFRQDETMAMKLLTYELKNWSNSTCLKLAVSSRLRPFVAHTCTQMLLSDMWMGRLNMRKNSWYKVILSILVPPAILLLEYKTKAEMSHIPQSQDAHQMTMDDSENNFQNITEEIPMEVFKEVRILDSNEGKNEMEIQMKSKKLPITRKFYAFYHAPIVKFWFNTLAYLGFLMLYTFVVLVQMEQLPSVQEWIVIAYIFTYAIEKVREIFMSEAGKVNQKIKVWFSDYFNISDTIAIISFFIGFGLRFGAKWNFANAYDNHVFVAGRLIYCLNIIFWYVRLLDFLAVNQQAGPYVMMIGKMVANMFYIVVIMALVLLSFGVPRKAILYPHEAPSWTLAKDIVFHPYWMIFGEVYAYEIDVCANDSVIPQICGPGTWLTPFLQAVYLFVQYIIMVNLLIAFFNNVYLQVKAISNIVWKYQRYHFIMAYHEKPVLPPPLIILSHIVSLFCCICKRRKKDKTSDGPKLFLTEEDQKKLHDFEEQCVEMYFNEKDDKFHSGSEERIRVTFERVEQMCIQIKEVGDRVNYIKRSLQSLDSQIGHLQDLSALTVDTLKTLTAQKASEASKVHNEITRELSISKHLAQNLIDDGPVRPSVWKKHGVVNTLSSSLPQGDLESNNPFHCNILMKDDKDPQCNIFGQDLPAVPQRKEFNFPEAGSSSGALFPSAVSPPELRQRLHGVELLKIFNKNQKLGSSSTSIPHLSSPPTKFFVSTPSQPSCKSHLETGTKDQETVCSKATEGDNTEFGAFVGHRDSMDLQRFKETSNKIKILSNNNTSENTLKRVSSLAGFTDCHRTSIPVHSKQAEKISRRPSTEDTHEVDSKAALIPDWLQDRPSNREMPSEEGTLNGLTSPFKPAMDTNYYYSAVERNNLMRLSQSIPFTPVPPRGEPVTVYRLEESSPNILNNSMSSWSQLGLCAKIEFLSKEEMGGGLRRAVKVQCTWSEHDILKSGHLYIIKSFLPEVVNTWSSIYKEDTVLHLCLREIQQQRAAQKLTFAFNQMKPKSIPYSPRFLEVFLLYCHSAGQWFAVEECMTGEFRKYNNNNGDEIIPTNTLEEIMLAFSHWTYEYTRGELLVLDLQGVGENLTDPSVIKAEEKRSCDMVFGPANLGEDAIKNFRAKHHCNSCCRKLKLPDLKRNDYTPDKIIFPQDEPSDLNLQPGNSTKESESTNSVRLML
Chain of Dual specificity mitogen-activated protein kinase kinase 6 (Homo sapiens) (P52564 whole entry): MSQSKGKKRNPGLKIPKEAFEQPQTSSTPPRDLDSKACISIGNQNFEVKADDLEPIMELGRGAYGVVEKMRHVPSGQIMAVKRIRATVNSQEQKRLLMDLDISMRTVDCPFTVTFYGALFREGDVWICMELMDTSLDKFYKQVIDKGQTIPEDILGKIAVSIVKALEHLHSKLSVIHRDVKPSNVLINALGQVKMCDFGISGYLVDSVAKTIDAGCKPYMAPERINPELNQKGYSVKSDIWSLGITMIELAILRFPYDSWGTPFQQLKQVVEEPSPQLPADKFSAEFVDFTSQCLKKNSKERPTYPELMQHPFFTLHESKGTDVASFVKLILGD
Chain of NUAK family SNF1-like kinase 2 (Homo sapiens) (Q9H093 whole entry): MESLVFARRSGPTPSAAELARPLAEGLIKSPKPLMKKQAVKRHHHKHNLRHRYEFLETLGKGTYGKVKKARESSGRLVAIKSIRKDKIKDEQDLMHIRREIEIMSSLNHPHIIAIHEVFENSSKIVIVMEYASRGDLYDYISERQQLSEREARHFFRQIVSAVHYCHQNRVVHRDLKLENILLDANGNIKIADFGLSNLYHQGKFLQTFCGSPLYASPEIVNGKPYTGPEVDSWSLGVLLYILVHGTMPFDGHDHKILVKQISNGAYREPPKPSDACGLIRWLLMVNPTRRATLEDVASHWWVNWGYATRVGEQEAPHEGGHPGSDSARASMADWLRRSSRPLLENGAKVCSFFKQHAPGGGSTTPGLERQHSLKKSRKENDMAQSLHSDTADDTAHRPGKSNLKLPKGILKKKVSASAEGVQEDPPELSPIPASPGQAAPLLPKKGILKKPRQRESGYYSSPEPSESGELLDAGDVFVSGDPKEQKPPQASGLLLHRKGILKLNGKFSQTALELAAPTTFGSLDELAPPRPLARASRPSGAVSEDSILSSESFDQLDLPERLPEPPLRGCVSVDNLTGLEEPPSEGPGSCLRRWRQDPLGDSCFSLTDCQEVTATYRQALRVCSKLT
Chain of Calcium/calmodulin-dependent protein kinase type IV (Homo sapiens) (Q16566 whole entry): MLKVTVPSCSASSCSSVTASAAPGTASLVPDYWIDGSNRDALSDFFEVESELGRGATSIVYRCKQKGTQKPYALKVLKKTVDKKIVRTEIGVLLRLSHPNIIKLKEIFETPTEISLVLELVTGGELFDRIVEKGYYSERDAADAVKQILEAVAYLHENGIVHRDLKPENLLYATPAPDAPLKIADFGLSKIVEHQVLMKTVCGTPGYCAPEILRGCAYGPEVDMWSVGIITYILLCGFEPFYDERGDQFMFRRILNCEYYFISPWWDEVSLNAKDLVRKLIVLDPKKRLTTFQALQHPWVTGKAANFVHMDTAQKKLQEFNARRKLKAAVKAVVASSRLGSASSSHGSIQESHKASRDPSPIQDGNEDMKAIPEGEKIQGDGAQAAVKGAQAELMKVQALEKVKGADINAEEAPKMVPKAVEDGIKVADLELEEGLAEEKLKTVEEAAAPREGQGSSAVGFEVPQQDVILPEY
Chain of Tribbles homolog 2 (Homo sapiens) (Q92519 whole entry, the tested form may be a part): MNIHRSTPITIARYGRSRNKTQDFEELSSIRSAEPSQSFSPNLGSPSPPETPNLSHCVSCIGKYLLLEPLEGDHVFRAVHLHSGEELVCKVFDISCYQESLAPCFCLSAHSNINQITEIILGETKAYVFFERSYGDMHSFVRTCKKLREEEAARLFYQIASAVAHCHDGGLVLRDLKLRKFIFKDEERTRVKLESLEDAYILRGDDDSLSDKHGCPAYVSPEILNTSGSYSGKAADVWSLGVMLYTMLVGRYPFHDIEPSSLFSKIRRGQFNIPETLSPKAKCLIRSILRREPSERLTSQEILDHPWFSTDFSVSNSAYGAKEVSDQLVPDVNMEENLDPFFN

For the compound `Cc1cc(C)c(CNc2nc(Cl)nc3c2ncn3C2CCCC2)c(=O)[nH]1`, the Activity in data set [1] is 114%; in data set [2], 90.5%; in data set [3], 102%; in [4] it was 102%; in data set [5], 120%; in data set [6], 121%. Besides, the Activity in data set [7] turned out to be 101%; in [8], 101%; in [9] it was 122%; in data set [10], 114%; in data set [11] it was 3.55%; in data set [12], 23.1%. For the same compound, the Activity in data set [13] was 124%; in data set [14], 101%; in [15], 103%; in data set [16], 94%; in data set [17] it was 114%; in [18], 110%. The Activity is 108% in [19]; 97% in [20]; 83% in [21]; “Non-Toxic” in data set [22]; 100% in [23].
